In patent US12661410B2, “Compounds for targeted degradation of RET” (C4 Therapeutics, Inc., priority 2020, dated 2026):
Substitutions are numbered along the chain they refer to. Where two headings read alike, the source gives them in different places.

Columns and labels:
RET(KD: 658-1114 G810R) = target: T1, RET(KD: 658-1114 G810R) (Homo sapiens, UniProt P07949, G810R); test: HiBiT-Degradation, RET G810R degradation assay (Nano-Glo HiBiT Lytic), 293T.165 cells; assay type: cell-based; details: for Emax / DC50: 6.0 hours; for Emax: % remaining protein, read-out: 293T.165 RET(KD: 658-1114 G810R) 6.0 hours (Emax); for DC50: read-out: 293T.165 RET(KD: 658-1114 G810R) 6.0 hours (DC50)
T1 construct: 658-1114; expressed in transfected cells; host or cells: 293T.165 (293T cells, generated in-house)
T1 sequence (P07949 658-1114 G810R): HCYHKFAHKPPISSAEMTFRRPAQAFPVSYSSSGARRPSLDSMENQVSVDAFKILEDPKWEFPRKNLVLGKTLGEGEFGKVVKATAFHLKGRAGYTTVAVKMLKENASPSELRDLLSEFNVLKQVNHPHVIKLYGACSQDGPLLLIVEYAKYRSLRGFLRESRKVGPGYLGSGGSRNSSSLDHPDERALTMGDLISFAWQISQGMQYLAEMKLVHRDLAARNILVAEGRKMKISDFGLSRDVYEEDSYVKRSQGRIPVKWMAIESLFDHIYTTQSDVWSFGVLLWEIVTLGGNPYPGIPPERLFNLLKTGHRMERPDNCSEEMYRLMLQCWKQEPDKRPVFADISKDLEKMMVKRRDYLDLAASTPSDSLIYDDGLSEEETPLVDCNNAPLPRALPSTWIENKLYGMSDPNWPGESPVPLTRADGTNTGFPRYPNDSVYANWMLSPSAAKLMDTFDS
From the text: (§1) Dulbecco's modified Eagle medium (DMEM) no-phenol red media and fetal bovine serum (FBS) were purchased from Gibco (Grand Island, NY, USA). Cell lines ectopically expressing wild-type or G810R RET kinase domain fused with a HiBiT tag were generated in-house (293T. 144 and 293T. 165, respectively). Cell culture flasks and 384-well microplates were acquired from VWR (Radnor, PA, USA). The Nano-Glo® HiBiT Lytic Assay System was purchased from Promega (Madison, WI, USA).
(§2) RET wild-type (WT) and G810R degradation were assessed using the Nano-Glo® HiBiT Lytic assay (Promega, Medison, WI, USA). To determine the effect of degraders on protein levels, cells were plated in 384-well plates and treated with compounds of interest in duplicates for 6 hours using an 11-point half-log dilution series, with the highest dose set at 10 μM. Cell lysis and addition of the Nano-Glo® HiBiT Lytic Assay reagents was then performed. Luminescence signal was measured using an EnVision™ Multimode plate reader (Perkin Elmer, Santa Clara, CA, USA). The half-maximal degradation concentration (DC50) and % remaining protein (Emax) was then derived from the dose-response curves.

RET (658-1114) = target: T2, RET (658-1114) (Homo sapiens, UniProt P07949); test: HiBiT-Degradation, RET wild-type degradation assay (Nano-Glo HiBiT Lytic), 293T.144 cells; assay type: cell-based; details: for Emax / DC50: 6.0 hours; for Emax: read-out: 293T.144 RET (658-1114) 6.0 hours (Emax); for DC50: read-out: 293T.144 RET (658-1114) 6.0 hours (DC50)
T2 construct: 658-1114; expressed in transfected cells; host or cells: 293T.144 (293T cells, generated in-house)
T2 sequence (P07949 658-1114): T1 sequence (P07949 658-1114 G810R) with R153G
From the text: as §1, §2

[1] = half-maximal degradation concentration

| SMILES | 293T.165 RET(KD: 658-1114 G810R) 6.0 hours (IP) [nM] (RET(KD: 658-1114 G810R)) | Emax (RET(KD: 658-1114 G810R)) [%] | DC50 (RET(KD: 658-1114 G810R); [1]) [nM] | 293T.144 RET (658-1114) 6.0 hours (IP) [nM] (RET (658-1114)) | Emax (RET (658-1114); % remaining protein) [%] | DC50 (RET (658-1114); [1]) [nM] | 293T.165 RET(KD: 658-1114 G810R) 6.0 hours (Emax) (RET(KD: 658-1114 G810R); HiBiT-Degradation) | 293T.165 RET(KD: 658-1114 G810R) 6.0 hours (IP) [nM] (RET(KD: 658-1114 G810R); HiBiT-Degradation) | DC50 (RET(KD: 658-1114 G810R); HiBiT-Degradation) [nM] | 293T.144 RET (658-1114) 6.0 hours (IP) [nM] (RET (658-1114); HiBiT-Degradation) | DC50 (RET (658-1114); HiBiT-Degradation) [nM] | Emax (RET (658-1114); HiBiT-Degradation) [%] |
| --- | --- | --- | --- | --- | --- | --- | --- | --- | --- | --- | --- | --- |
| CCC1(C(=O)Nc2ccc(F)cc2)CCN(c2ccc(-c3nc(-c4cnn(C5CCN(C(=O)CC6(O)CCN(c7ccc(NC8CCC(=O)NC8=O)cc7F)CC6)CC5)c4)cn4ncc(C#N)c34)cn2)CC1 (stereo not shown) [Compound 101, 1-[5-[3-cyano-6-[1-[1-[2-[1-[4-[(2,6-dioxo-3-piperidyl)amino]-2-fluoro-phenyl]-4-hydroxy-4-piperidyl]acetyl]-4-piperidyl]pyrazol-4-yl]pyrazolo[1,5-a]pyrazin-4-yl]-2-pyridyl]-4-ethyl-N-(4-fluorophenyl)piperidine-4-carboxamide] | ++++ (<50 nM = ++++) | < 30 | < 50 | ++++ (<50 nM = ++++) | < 30 | < 50 |  |  |  |  |  |  |
| CCC1(C(=O)NC(C)C)CCN(c2ncc(-c3nc(-c4cnn(C5CCN(C(=O)CC6(O)CCN(c7ccc(NC8CCC(=O)NC8=O)cc7F)CC6)CC5)c4)cn4ncc(C#N)c34)cc2F)CC1 (stereo not shown) [Compound 119, 1-(5-(3-cyano-6-(1-(1-(2-(1-(4-((2,6-dioxopiperidin-3-yl)amino)-2-fluorophenyl)-4-hydroxypiperidin-4-yl)acetyl)piperidin-4-yl)-1H-pyrazol-4-yl)pyrazolo[1,5-a]pyrazin-4-yl)-3-fluoropyridin-2-yl)-4-ethyl-N-isopropylpiperidine-4-carboxamide] | ++++ (<50 nM = ++++) | < 50 | < 100 | ++++ (<50 nM = ++++) | < 30 | < 50 |  |  |  |  |  |  |
| N#Cc1cnn2cc(-c3ccc(N4CCN(C(=O)CN5CCC(c6ccc(NC7CCC(=O)NC7=O)cc6F)CC5)CC4)cc3)cc(-c3ccc(N4CCN(Cc5ccccn5)CC4)nc3)c12 (stereo not shown) [Compound 28, 6-(4-(4-(2-(4-(4-((2,6-Dioxopiperidin-3-yl)amino)-2-fluorophenyl)piperidin-1-yl)acetyl)piperazin-1-yl)phenyl)-4-(6-(4-(pyridin-2-ylmethyl)piperazin-1-yl)pyridin-3-yl)pyrazolo[1,5-a]pyridine-3-carbonitrile] |  | < 30 | < 100 |  |  |  | ++++ (< 30% = ++++) | ++++ (< 50 nM = ++++) | < 100 | ++++ (< 50 nM = ++++) | < 50 | < 30 |
| CC(=O)N1CCN(c2ccc(-c3nc(-c4ccc(N5CCN(C(=O)CN6CCC(c7ccc(NC8CCC(=O)NC8=O)cc7)CC6)CC5)cc4)cn4ncc(C#N)c34)cn2)CC1 (stereo not shown) [Compound 27, 4-(6-(4-acetylpiperazin-1-yl)pyridin-3-yl)-6-(4-(4-(2-(4-(4-((2,6-dioxopiperidin-3-yl)amino)phenyl)piperidin-1-yl)acetyl)piperazin-1-yl)phenyl)pyrazolo[1,5-a]pyrazine-3-carbonitrile] |  | < 30 | < 50 |  |  |  | ++++ (< 30% = ++++) | ++++ (< 50 nM = ++++) | < 50 | ++++ (< 50 nM = ++++) | < 50 | < 30 |
| N#Cc1cnn2cc(-c3cnn(C4CCN(C(=O)CC5(O)CCN(c6ccc(NC7CCC(=O)NC7=O)cc6F)CC5)CC4)c3)nc(-c3ccc(N4CCC(c5ncccn5)CC4)nc3)c12 (stereo not shown) [Compound 36, 6-[1-[1-[2-[1-[4-[(2,6-dioxo-3-piperidyl)amino]-2-fluoro-phenyl]-4-hydroxy-4-piperidyl]acetyl]-4-piperidyl]pyrazol-4-yl]-4-[6-(4-pyrimidin-2-yl-1-piperidyl)-3-pyridyl]pyrazolo[1,5-a]pyrazine-3-carbonitrile] |  | < 30 | < 50 |  |  |  | ++++ (< 30% = ++++) | ++++ (< 50 nM = ++++) | < 50 | ++++ (< 50 nM = ++++) | < 50 | < 30 |

More lines, now with the values ahead:

| 293T.165 RET(KD: 658-1114 G810R) 6.0 hours (IP) [nM] (RET(KD: 658-1114 G810R)) | Emax (RET(KD: 658-1114 G810R)) [%] | DC50 (RET(KD: 658-1114 G810R); [1]) [nM] | 293T.144 RET (658-1114) 6.0 hours (IP) [nM] (RET (658-1114)) | Emax (RET (658-1114); % remaining protein) [%] | DC50 (RET (658-1114); [1]) [nM] | 293T.165 RET(KD: 658-1114 G810R) 6.0 hours (Emax) (RET(KD: 658-1114 G810R); HiBiT-Degradation) | 293T.165 RET(KD: 658-1114 G810R) 6.0 hours (IP) [nM] (RET(KD: 658-1114 G810R); HiBiT-Degradation) | DC50 (RET(KD: 658-1114 G810R); HiBiT-Degradation) [nM] | 293T.144 RET (658-1114) 6.0 hours (IP) [nM] (RET (658-1114); HiBiT-Degradation) | DC50 (RET (658-1114); HiBiT-Degradation) [nM] | Emax (RET (658-1114); HiBiT-Degradation) [%] | SMILES |
| --- | --- | --- | --- | --- | --- | --- | --- | --- | --- | --- | --- | --- |
| +++ (<100 nM = +++) | < 30 | < 50 | ++++ (<50 nM = ++++) | < 30 | < 50 |  |  |  |  |  |  | CCC1(C(=O)NC(C)C)CCN(c2ccc(-c3cc(-c4cnn(C5CC6(C5)CN(C5CCN(c7ccc(NC8CCC(=O)NC8=O)cc7F)CC5)C6)c4)cn4ncc(C#N)c34)cn2)CC1 (stereo not shown) [Compound 199, 1-(5-(3-cyano-6-(1-(2-(1-(4-((2,6-dioxopiperidin-3-yl)amino)-2-fluorophenyl)piperidin-4-yl)-2-azaspiro[3.3]heptan-6-yl)-1H-pyrazol-4-yl)pyrazolo[1,5-a]pyridin-4-yl)pyridin-2-yl)-4-ethyl-N-isopropylpiperidine-4-carboxamide] |
|  | < 30 | < 50 |  | < 30 | < 50 |  |  |  |  |  |  | CCC1(C(=O)NC2CCC2)CCN(c2ccc(-c3nc(-c4cnn([C@H]5CC[C@H](N6CCC(c7ccc(NC8CCC(=O)NC8=O)cc7Cl)CC6)CC5)c4)cn4ncc(C#N)c34)cn2)CC1 (single isomer, unassigned) [Compound 133, 1-[5-[6-[1-[4-[4-[2-chloro-4-[(2,6-dioxo-3-piperidyl)amino]phenyl]-1-piperidyl]cyclohexyl]pyrazol-4-yl]-3-cyano-pyrazolo[1,5-a]pyrazin-4-yl]-2-pyridyl]-N-cyclobutyl-4-ethyl-piperidine-4-carboxamide] |
| ++++ (<50 nM = ++++) | < 30 | < 50 | ++++ (<50 nM = ++++) | < 30 | < 50 |  |  |  |  |  |  | CCC1(C(=O)NC(C)C)CCN(c2ccc(-c3cc(-c4cnn([C@H]5CC[C@H](N6CCC(c7ccc(N[C@@H]8CCC(=O)NC8=O)cc7F)CC6)CC5)c4)cn4ncc(C#N)c34)cn2)CC1 (single isomer, unassigned) [Compound 195] |
| ++++ (<50 nM = ++++) | < 30 | < 50 | ++++ (<50 nM = ++++) | < 30 | < 50 |  |  |  |  |  |  | N#Cc1cnn2cc(-c3cnn([C@H]4CC[C@H](N5CCC(c6ccc(N[C@@H]7CCC(=O)NC7=O)cc6F)CC5)CC4)c3)nc(-c3ccc(N4CCC5(CC4)OCc4cccnc45)nc3)c12 (single isomer, unassigned) [Compound 180] |
